{"source": "patent US20200315996A1", "about": "(Board of Trustees, Southern Illinois University, priority 2016, published 2020)", "key": {"[1]": {"conditions": "ORGANIZATION WH, 2002; cited from earlier work"}, "[2]": {"conditions": "rats; cited from earlier work"}, "p-CHUK (IKK)": {"test_system": "p-CHUK (IKK)", "experiment": "Immunohistochemistry of endometriotic lesions, p-CHUK", "assay_type": "in vivo, mice", "conditions": "3 weeks", "excerpt": "(§1) The presence and location of different proteins in the tissues obtained from the recipient mice. Samples of uterine tissue were isolated from the recipient mice, fixed by standard histological methods, and embedded in paraffin. Thin sections (5 μm) of the paraffin-embedded tissues were screened with standard immunohistochemical methods using antibodies to identify the expression of in the uterine tissues. […] The expression of MKI67, ESR1, PGR, p-CHUK, p-STAT3, NOS2 and PTGS2 proteins in uterine tissues, as determined by immunohistochemical analysis of uterine tissue sections, was semiquantitatively analyzed. Levels of apoptosis were analyzed by TUNEL assay and also semiquantitatively analyzed. […] Histological sections were obtained from 4 different lesions. For each section, three different areas measuring 0.007 mm^2 were chosen. In each of those areas, the total number of epithelial or stromal cells was counted, as was the number of cells that tested positive for expressing MKI67 (a marker of cellular proliferation), steroid receptors ESR1 and PGR, and inflammatory signaling molecules p-CHUK, p-STAT3, NOS2 and PTGS2 proteins."}, "mice": {"test_system": "mice", "conditions": "cited from earlier work"}, "endometriotic lesions": {"test_system": "endometriotic lesions", "experiment": "Mouse model of endometriosis, growth of implanted endometriotic lesions (Study 1)", "assay_type": "in vivo, mice", "conditions": "for lesion weight / lesion volume: 3 weeks; for lesion weight: controls 0.044±0.007 g; for lesion volume: controls 40.1±6.6 mm3; for total weight of lesions: controls 154.0±29.3 mg", "excerpt": "An experimental mouse model of endometriosis was established adopting procedures described previously with some modification [Han, 2012; Hirata, 2005; Kulak, 2011; Pelch, 2012; Zhao, 2014]. Female, eight week old B6-GFP mice were used as donor mice. These mice are transgenic mice whose cells endogenously express a green fluorescent protein (GFP) which is detectable under fluorescent light. When implanted to a GFP-negative recipient mouse, tissue implants from GFP-positive donor mice can be distinguished from the tissues of the recipient mice. Ectopic GFP-positive lesions were microscopically examined to evaluate the implants for accurate growth and progression. Briefly, the uterine horns were removed from donor mice during the diestrus stage of the reproductive cycle. […] Then, the uterine pieces were maintained in warmed DMEM/F12 medium (#10-090, Corning). […] The recipient mice were selected during the diestrus stage and anesthetized. In each mouse, a longitudinal abdominal incision was made, and uterine pieces from donor mice were sutured to the right or left side of the peritoneal walls of each animal (implanting each 2-mm and 3-mm piece per side) using a 6-0 braided silk suture (# SUT-1073-11, Roboz). Then, the abdominal incision was closed with a 4-0 braided silk suture (# SUT-1073-31, Roboz). […] Uterine tissue pieces of B6-GFP mice (donor) were implanted into the peritoneal walls of recipient mice. […] The lesion volume was calculated according to the formula (L×W^2), where L is length and W is width [[…], 2007]."}, "MKI67 (Ki67)": {"test_system": "MKI67 (Ki67)", "experiment": "Immunohistochemistry of endometriotic lesions, MKI67 (cell proliferation)", "assay_type": "in vivo, mice", "conditions": "3 weeks; for % of MKI67 positive cells/total cells/0.007 mm^2, Stroma: control 13.8 ± 1.4", "excerpt": "The presence and location of different proteins in the tissues obtained from the recipient mice. Samples of uterine tissue were isolated from the recipient mice, fixed by standard histological methods, and embedded in paraffin. Thin sections (5 μm) of the paraffin-embedded tissues were screened with standard immunohistochemical methods using antibodies to identify the expression of in the uterine tissues.\nPrimary antibodies that recognized MKI67 (Ki67), PECAM1 (CD31), ESR1, PGR, p-CHUK (IKK), p-STAT3, NOS2 (iNOS) and PTGS2 (COX2), and Vectastain Elite ABC Kit (# PK-6101), Mouse on Mouse Basic Kit (# BMK-2202, Vector laboratories) or DyLight-conjugated secondary antibody (#711-516-152, Jackson ImmunoResearch Lab) were used to show the presence of the proteins in the tissues, which were examined under microscopes.\nThe primary antibodies used in these analyses were: anti-MKI67 (Ki67, 1:200 dilution, 550609, BD Biosciences), anti-PECAM1 (CD31, 1:100 dilution, ab28364, Abcam), anti-ESR1 (1:100 dilution, sc-542, Santa Cruz Biotechnology), anti-PGR (1:200 dilution, RB-9017-P0, Thermo Scientific), anti-p-CHUK (IKK, 1:150 dilution, 2697, Cell Signaling Technology), anti-p-STAT3 (1:50 dilution, 9145, Cell Signaling Technology), anti-NOS2 (iNOS, 1:50 dilution, 610333, BD Biosciences) and anti-PTGS2 (COX2, 1:50 dilution, RM-9121, Thermo Scientific).\nThe expression of MKI67, ESR1, PGR, p-CHUK, p-STAT3, NOS2 and PTGS2 proteins in uterine tissues, as determined by immunohistochemical analysis of uterine tissue sections, was semiquantitatively analyzed. Levels of apoptosis were analyzed by TUNEL assay and also semiquantitatively analyzed. Histological sections were obtained from 4 different lesions. For each section, three different areas measuring 0.007 mm^2 were chosen. In each of those areas, the total number of epithelial or stromal cells was counted, as was the number of cells that tested positive for expressing MKI67 (a marker of cellular proliferation), steroid receptors ESR1 and PGR, and inflammatory signaling molecules p-CHUK, p-STAT3, NOS2 and PTGS2 proteins."}, "NOS2 (iNOS)": {"test_system": "NOS2 (iNOS)", "experiment": "Immunohistochemistry of endometriotic lesions, NOS2", "assay_type": "in vivo, mice", "conditions": "3 weeks; for % of NOS2 positive cells/total cells/0.007 mm^2, Stroma: control 75.2 ± 4.6", "excerpt": "as §1"}}, "data": [{"molecule": "O=C(Nc1ccc([N+](=O)[O-])cc1Cl)c1cc(Cl)ccc1O", "note": "[niclosamide, 5-chloro-N-(2-chloro-4-nitrophenyl)-2-hydroxybenzamide]", "values": [{"measurement": "water solubility", "setting": "[1]", "value": "< 20", "unit": "µM"}, {"measurement": "plasma half-life", "setting": "[2]", "value": 7, "unit": "h"}, {"measurement": "% of p-CHUK positive cells/total cells/0.007 mm^2, Stroma", "setting": "p-CHUK (IKK); 100 mg/kg b.w./day oral, control 83.4 ± 4.7", "value": "86.3 ± 4.0", "unit": "%"}, {"measurement": "% of p-CHUK positive cells/total cells/0.007 mm^2, Epithelium", "setting": "p-CHUK (IKK); 100 mg/kg b.w./day oral, control 97.9 ± 2.1", "value": "92.3 ± 3.8", "unit": "%"}, {"measurement": "% of p-CHUK positive cells/total cells/0.007 mm^2, Stroma", "setting": "p-CHUK (IKK); 200 mg/kg b.w./day oral, control 83.4 ± 4.7, p < 0.01", "value": "56.2 ± 8.3", "unit": "%"}, {"measurement": "% of p-CHUK positive cells/total cells/0.007 mm^2, Epithelium", "setting": "p-CHUK (IKK); 200 mg/kg b.w./day oral, control 97.9 ± 2.1, p < 0.05", "value": "76.7 ± 9.2", "unit": "%"}, {"measurement": "LD50, acute toxicity", "setting": "mice", "value": "> 1500", "unit": "mg/kg b.w."}, {"measurement": "lesion weight", "setting": "endometriotic lesions; 100 mg/kg b.w./day oral", "value": "0.023 ± 0.004", "unit": "g"}, {"measurement": "lesion volume", "setting": "endometriotic lesions; 100 mg/kg b.w./day oral, no significant difference", "value": "23.15±5.0", "unit": "mm3"}, {"measurement": "lesion weight", "setting": "endometriotic lesions; 200 mg/kg b.w./day oral", "value": "0.016 ± 0.003", "unit": "g"}, {"measurement": "lesion volume", "setting": "endometriotic lesions; 200 mg/kg b.w./day oral", "value": "7.4±0.8", "unit": "mm3"}, {"measurement": "number of lesions between treatment groups", "setting": "endometriotic lesions; oral 50, 100 or 200 mg/kg b.w. vs controls", "value": "did not differ"}, {"measurement": "total weight of lesions", "setting": "endometriotic lesions; oral niclosamide 50 mg/kg b.w., n=7", "value": "114.9 ± 31.6", "unit": "mg"}, {"measurement": "total weight of lesions", "setting": "endometriotic lesions; oral niclosamide 100 mg/kg b.w., n=9", "value": "76.2 ± 18.3", "unit": "mg"}, {"measurement": "total weight of lesions", "setting": "endometriotic lesions; oral niclosamide 200 mg/kg b.w., n=20", "value": "44.9 ± 7.43", "unit": "mg"}, {"measurement": "% of MKI67 positive cells/total cells/0.007 mm^2, Stroma", "setting": "MKI67 (Ki67); 100 mg/kg b.w./day oral", "value": "10.9 ± 1.9", "unit": "%"}, {"measurement": "% of MKI67 positive cells/total cells/0.007 mm^2, Epithelium", "setting": "MKI67 (Ki67); 100 mg/kg b.w./day oral, control 61.6 ± 5.9, 100 mg/kg/day", "value": "50.1±7.9", "unit": "%"}, {"measurement": "% of MKI67 positive cells/total cells/0.007 mm^2, Epithelium", "setting": "MKI67 (Ki67); 100 mg/kg b.w./day oral, control 61.6 ± 5.9, listed as Niclosamide, 100 mg/kg/day", "value": "50.1 ± 7.9", "unit": "%"}, {"measurement": "% of MKI67 positive cells/total cells/0.007 mm^2, Stroma", "setting": "MKI67 (Ki67); 200 mg/kg b.w./day oral", "value": "7.9 ± 1.9", "unit": "%"}, {"measurement": "% of MKI67 positive cells/total cells/0.007 mm^2, Epithelium", "setting": "MKI67 (Ki67); 200 mg/kg b.w./day oral, control 61.6 ± 5.9, p < 0.05, 200 mg/kg/day", "value": "37.7±7.2", "unit": "%"}, {"measurement": "% of MKI67 positive cells/total cells/0.007 mm^2, Epithelium", "setting": "MKI67 (Ki67); 200 mg/kg b.w./day oral, control 61.6 ± 5.9, p < 0.05, listed as Niclosamide, 200 mg/kg/day", "value": "37.7 ± 7.2", "unit": "%"}, {"measurement": "% of NOS2 positive cells/total cells/0.007 mm^2, Stroma", "setting": "NOS2 (iNOS); 100 mg/kg b.w./day oral", "value": "57.8 ± 4.3", "unit": "%"}, {"measurement": "% of NOS2 positive cells/total cells/0.007 mm^2, Epithelium", "setting": "NOS2 (iNOS); 100 mg/kg b.w./day oral, control 99.5 ± 0.4", "value": "99.5 ± 0.5", "unit": "%"}, {"measurement": "% of NOS2 positive cells/total cells/0.007 mm^2, Stroma", "setting": "NOS2 (iNOS); 200 mg/kg b.w./day oral", "value": "61.9 ± 5.7", "unit": "%"}, {"measurement": "% of NOS2 positive cells/total cells/0.007 mm^2, Epithelium", "setting": "NOS2 (iNOS); 200 mg/kg b.w./day oral, control 99.5 ± 0.4, p < 0.05", "value": "86.2 ± 5.9", "unit": "%"}]}]}
